Measured values from US20240352183A1, “CONDUCTIVE POLYMER WITH COVALENT CAPTURE ABILITY AND METHODS OF USING SAME” (Duke University, priority 2021, published 2024).

Assay: Solubility of EDOT^PEGn-HTL monomer variants in various solvents
Format: physicochemical
Details: compared among three variants (n=1,2,3)
From the text: EDOT conjugates with HTL have not been reported previously. Initially a series of EDOT^PEGn-HTL monomers (n=1,2,3, . . . ) were synthesized, wherein it was anticipated that increasing the number of PEG repeats would improve solubility, at the risk of exacerbating sidechain steric interference (FIG. 2A). The HTL modification increases the molecular weight of the monomer. The unmodified EDOT has a molecular weight (MW) of […]; while EDOT^PEGn-HTL has a MW of 551 (n=1), 595 (n=2), 639 (n=3), or MW of 507+44×n. Thus, all of the candidate designs carry substantial steric bulk, which is inevitable.
Several conditions were tested, including various solvents, against the three variants. […] EDOT^PEG3-HTL was unable to be polymerized with PSS as the counter-ion. Specifically, whereas the formation of PEDOT:PSS is accompanied by an unmistakable darkening of a gold surface (i.e., the polymer is visible to the naked eye), no visual indication of polymerization was seen when EDOT was replaced with EDOT^PEG3-HTL (FIG. 3A and FIG. 3B). This held true over a wide range of voltage parameters and concentrations.

solubility: most soluble
SMILES: O=C(CCOCCOCCOCCNC(=O)COCC1COc2cscc2O1)NCCOCCOCCCCCCCl (stereo not shown) [EDOT^PEG3-HTL, N-(2-(2-((6-chlorohexyl)oxy)ethoxy)ethyl)-3-((1-(2,3-dihydrothieno[3,4-b][1,4]dioxin-2-yl)-4-oxo-2,8,11-trioxa-5-azatridecan-13-yl)oxy)propanamide]
